Test results published in US20230232827A1, “METHOD FOR C[…] RUST FUNGUS RESISTANT TO QoI FUNGICIDES” (SUMITOMO CHEMICAL COMPANY, LIMITED, priority 2020, published 2023).

These molecules were tested on soybean rust fungus (Phakopsora pachyrhizi) having an amino acid substitution of F129L in a mitochondrial cytochrome b protein (assay: Leaf disc test of control of soybean rust (lesion area) after spraying the test compound). Conditions: Comparative Test Example 1, according to Test Example 1.
Format: in vivo
Description: A true leaf of a soybean (cultivar: Kurosengoku) was cut into a diameter of 1 cm to prepare each leaf disc. To each well of a 24 well microplate was dispensed 1 mL of an agar medium (agar concentration 1.2%), and then one of said leaf disc was placed on each well. To a mixture of Sorpol (registered trademark) 1200KX (0.5 μL), DMSO (4.5 μL), and xylene (5 μL) was added a DMSO solution (20 μL) comprising a test compound (10000 ppm), and the resulting mixture was mixed. The resulting mixture was diluted with ion exchange water to prepare a spray solution comprising a prescribed concentration of the test compound. Said spray solution was sprayed into each leaf disc at a ratio of 10 μL per leaf disc. After 1 day, an aqueous suspension of spores of soybean rust fungus (Phakopsora pachyrhizi) having an amino acid substitution of F129L in a mitochondrial cytochrome b protein (1.0×10^5/mL) was inoculated by spraying on each leaf disc. After the inoculation, the microplate was placed into an artificial climate chamber (Lighting: 6 hours, Lights-out: 18 hours, Temperature: 23° C., Humidity: 60%). After 1 day, the leaf discs were air-dried until water droplets on the surfaces of the leaf discs disappeared, and the microplate was placed into the artificial climate chamber again for 12 days. Then, lesion area of soybean rust was investigated. As a result, when the prescribed concentration was 50 ppm, each lesion area of leaf disc treated with any one of the Present compound 2 to 13, 15 to 30, 33 to 40, 42 to 49, 52 to 56, 58, 60, 65, 66, or 74 to 79 as the test compound was 30% or less relative to the lesion area of non-treated leaf disc. Here, the term of “non-treated” means that a spray solution comprising a test compound was not sprayed into a leaf disc.
Each test is carried out according to the Test Example 1 by using any one of the Present compound S as the test compound with a prescribed concentration of 12.5 ppm. As a result, control effects on soybean rust can be confirmed in the leaf discs treated with test compounds.
Each test is carried out according to the Test Example 1 by using any one of the Present compound S as the test compound with a prescribed concentration of 3.1 ppm. As a result, control effects on soybean rust can be confirmed in the leaf discs treated with test compounds.
Each test was carried out according to the Test Example 1 by using the Present compound 4, 3, 11, or 42, or azoxystrobin, dimoxystrobin, or metominostrobin as the test compound with a prescribed concentration of 50 ppm.

Row | SMILES | Lesion area (%) at the concentration of 50 ppm [%]
1 | CO/C=C(/C(=O)OC)c1ccccc1Oc1cc(Oc2ccccc2C#N)ncn1 [Azoxystrobin, reference compound] | 100
2 | CNC(=O)/C(=N/OC)c1ccccc1COc1cc(C)ccc1C [Dimoxystrobin, reference compound] | 100
3 | CNC(=O)/C(=N/OC)c1ccccc1Oc1ccccc1 [Metominostrobin, reference compound] | 100
4 | CO/C=C(/C(=O)OC)n1ncc2ccc(-c3ccccc3)cc21 [Present compound 3] | 0
5 | CO/C=C(/C(=O)OC)n1c2ccccc2c2ccc(Br)cc21 [Present compound 4] | 0
6 | CO/C=C(/C(=O)OC)n1ccc2ccc(C#CC3CC3)cc21 [Present compound 11] | 0
7 | CO/C=C(/C(=O)OC)n1ccc2ccc(/C(C)=N/OC)cc21 [Present compound 42] | 0
